The subject of this test is hESC-derived spheroid bodies (SBs), HAD-C102. The test is described as follows: Real-time PCR of eye field, retinal progenitor and photoreceptor progenitor markers in SBs cultured with factor combinations. It counts as cell-based, human. How it is done:
SBs were generated under non-adherent conditions (day 0) from cord-feeder-conditioned media culture systems, or from feeder free laminin 521 culture systems, as described above. SBs were cultured in the following medium: […]® minus medium (Biological industries, Beit Haemek, Israel) supplemented with 50 U/ml penicillin and 50 μg/ml streptomycin (Gibco-BRL, Carlsbad, Calif.). In the initial 0 to 6 days of SBs culture (under non-adherent conditions), the medium was supplemented with 10 mM nicotinamide (Sigma, St. Louis, Mo.). It was further supplemented with the addition of the following factors in different combinations: 10 mM nicotinamide (Sigma, St. Louis, Mo.), 3 μM endo-IWR 1 (IWR1e; TOCRIS, a biotechne brand, Minneapolis, Minn.), 20 ng/ml bFGF (PeproTech Inc., Rocky Hill, N.J.), 5 ng/ml IGF1 (R&D Systems Inc., Minneapolis, Minn.) and 3 μM CHIR99021 (CHIR; PeproTech Inc., Rocky Hill, N.J.).
Real-time PCR was used to determine the expression of eye field and retinal progenitor markers and photoreceptor progenitor markers. mRNA was extracted using QUICK-RNA Micro Prep, Zymo Research (Cat #R1051) and the RT reaction was accomplished with QSCRIPT™ reverse transcriptase (Quanta BioScience Inc., Gaithersburg, Md.). The levels of transcripts were monitored using commercially available TAQMAN™ Assay-on-Demand Gene Expression Products (Applies Biosystems, Foster City, Calif.). The expression of eye field and photoreceptor precursor markers were analyzed at time points of 14 days to 8 weeks. At Time point 0 (TO), the derivation of SBs and the beginning of their culture in non-adherent culture dishes were initiated.
SBs were treated with combinations of NIC, bFGF, CHIR and IGF1 for 1 month. At the end of these culture periods, the expression of eye field and retinal progenitor markers (Rx, Six3, Six6, Chx10) and photoreceptor progenitor markers (NRL, CRX) was analyzed by Real-time PCR. […] FIG. 3 through FIG. 8 show graphs illustrating marker expression of Six3, Six6, Chx10, Rx, CRX, and NRL, respectively, in SBs cultured in NIC+bFGF or NIC+IGF or NIC+bFGF+CHIR for 4 weeks. Relative quantity of gene expression is plotted against different conditions. FIG. 9 through FIG. 14 show graphs illustrating marker expression of Six3, Six6, Chx10, Rx, CRX, and NRL, respectively, in SBs cultured in NIC+bFGF or NIC+bFGF+CHIR for 17 days. The control, HADC102, was comprised of undifferentiated HAD-C102 cells cultured for 6-7 days in […]® hPSC XF*Xeno-free medium for Human Pluripotent Stem Cells (Biological Industries).
A general note: In qPCR the cycle at which signal appears reflects the starting amount.

Take `O=C(Nc1cccc2cccnc12)c1ccc(N2C(=O)[C@@H]3[C@H](C2=O)[C@@H]2C=C[C@H]3C2)cc1` [IWR1e, 4-[(3aR,4S,7R,7aS)-1,3,3a,4,7,7a-hexahydro-1,3-dioxo-4,7-metha-no-2H-isoindol-2-yl]-N-8-quinolinyl-benzamide]: the “expression of markers of hESC-derived photoreceptor progenitors” value (SBs cultured 20 days, Pax6, Six3, Rx, Six6, Chx10, FIG. 21-25) is “induced the expression of markers of hESC-derived photoreceptor progenitors”. In addition, the “expression of the eye field and retinal progenitor markers Pax6, Rx, Six3, Six6 and Chx10” value (compared among NIC+IWR1e, NIC, IWR1e, IWR1e+bFGF, FIG. 26-35) is reported as “much lower”.
In the case of `NC(=O)c1cccnc1` [NIC, nicotinamide], under “evidenced by expression of markers of photoreceptor cells (RT-PCR)”, the “generation of photoreceptor cells from human pluripotent stem cells” value is recorded as “sufficient to generate photoreceptor cells from human pluripotent stem cells”.
With “Laminin 521: laminin 521 (BioLamina) coating for feeder-free culture of hESCs before SB formation”, the “expression of all the markers analyzed (Rx, Pax6, Six3, Six6, Chx10)” value (SBs from hESCs cultured on laminin 521 vs gelatin in cord feeder conditioned medium, NIH 5 weeks, FIG. 50-58) was “higher”. In addition, where the note is “initial culturing of hESC on laminin 521 vs gelatin in feeder cell conditioned medium”, the efficiency of differentiation entry is on record as “more efficient differentiation result”.

(Values after US12281328B2, “Photoreceptor cells for the treatment of retinal diseases” (Hadasit Medical Research Services and Development Ltd., priority 2017, dated 2025).)
